Key:
S100A8 = test: Microarray gene expression, hippocampus of SAMP8 mice (Example 3); assay type: in vivo, mouse; settings: for Hybridization signal sample_Cy5 S100A8 / log2 (sample/control) S100A8: SAMP8 female pool
Procedure: (§1) Total RNA was extracted from samples using the RNeasy extraction kit (Qiagen). The quality and concentration of the RNA was analyzed using the Agilent 2100 bioanalyzer and NanoDrop™ ND-1000 (Thermo Scientific). Samples with RNA integrity number (RIN)<6.0 were discarded. Total RNA (0.5 μg) amplification and labelling with Cy3 or Cy5 was carried out using the Eberwein mRNA amplification procedure (Van Gelder et al, Proc Natl Acad Sci USA 1990, 87:1663-1667) employing the MessageAmp™ aRNA amplification kit from Ambion (Applied Biosystems) following the manufacturer's instructions with minor modifications. As hybridization controls, plant mRNAs were transcribed from a plasmid containing the Zea mays Xet (xyloglucan endo-transglycosylase) cDNA and from a plasmid containing the Zea mays Zmmyb42 cDNA, independently prepared Cy3 and Cy5 labelled aRNA from these two RNAs using the Eberwein mRNA amplification procedure (as disclosed in Cerdà et al, Gen Comp Endocrinol 2008, 156:470-481).
(§2) The Cy3- and Cy5-labelled cRNAs and spikes were combined and hybridized to the microarray described in Example 2.6 for 17 h at 60° C. using Agilent's gaskets G2534-60002, G2534A hybridization chambers and DNA Hybridization Oven G2545A, according to the manufacturer's instructions. More specifically, equal amounts of Cy3 and Cy5 labeled Xet aRNA as well as equal amounts of Cy3 and Cy5 labeled Zmmyb42 aRNA were spiked into each mixture hybridized to the array. Arrays were washed and raw data were obtained using Agilent's DNA Microarray Scanner G2505B and Feature Extraction software (v10.1). The raw fluorescence intensity data were processed using applicant's proprietary software, and consists in the following operations:
(§3) Data normalization was carried out by an improved version of the nonlinear Q-splines normalization method (Workman et al., Genome Biol 2002, 3(9):research0048.1-0048.16). Normalization results were presented graphically as MA plots, as first described by Dudoit et al (Dudoit et al, Statistica Sinica, 2002, 12:111-139). Each point corresponds to a probe of the DNA array. M values (vertical axis) are the log-differential expression ratios. A values (horizontal axis) are the log-intensities of the spots. M and A are calculated from the Cy5 and Cy3 intensity values as of each spot. The DNA Array data is normalized using an improved version of non-linear Q-Splines normalization described by Workman et al., Genome Biol 2002, 3(9):research0048.1-0048.16. This process is useful to correct the deviation of the M values from the statistical assumption that most of the spots have M=0 in MA plots. The method allows the adjustment of all M values to form a cloud centered at M=0 in all intensity ranges. The data used to calculate the normalization fitting curve is the totality of the raw measurement dataset, excluding the signals for the probes for the spiked-in plant RNA controls and negative controls. In order to be able to normalize properly the data among all the experiments, the probe-set must include an important group of genes that should have no change (M=0) in the experiment. The normalization function is then applied to all the data, including controls.
(§4) Normalized and log-transformed data were used to calculate log 2 (sample/control) and Fold Change (FC) values. No background subtraction was applied to the signal intensity values during data processing, permitting robust selection of differentially expressed genes with low expression levels at the cost of potential sub-estimation of change when intensity levels are close to the array background level.
(§5) The technical replicate analysis is the statistical processing of the microarray data. Replicates were calculated to measure oligo replicates on an array or between replicates of experiments on different arrays (i.e. hybridization of the same sample). […]

S100A9 = test: as above; assay type: in vivo, mouse; settings: for Hybridization signal sample_Cy5 S100A9 / log2 (sample/control) S100A9: SAMP8 female pool
Procedure: as §1, §2, §3, §4, §5

[1] = SAMP8 females, treatment vs vehicle

(−) 5-((((trans)-2-(4-(benzyloxy)phenyl)cyclopropyl)amino)methyl)-1,3,4-oxadiazol-2-amine [Compound 1]
Hybridization signal sample_Cy5 S100A8 (S100A8; HD 3.2 mg/kg/day): 77.0786
log2 (sample/control) S100A8 (S100A8; HD 3.2 mg/kg/day vs SAMP8 VEH): −0.1813
Hybridization signal sample_Cy5 S100A8 (S100A8; LD 0.96 mg/kg/day): 70.7119
log2 (sample/control) S100A8 (S100A8; LD 0.96 mg/kg/day vs SAMP8 VEH): −0.2255
S100A8 expression (microarray) (S100A8; [1]): down-regulated
Hybridization signal sample_Cy5 S100A9 (S100A9; HD 3.2 mg/kg/day): 73.2282
log2 (sample/control) S100A9 (S100A9; HD 3.2 mg/kg/day vs SAMP8 VEH): −0.7647
Hybridization signal sample_Cy5 S100A9 (S100A9; LD 0.96 mg/kg/day): 66.4843
log2 (sample/control) S100A9 (S100A9; LD 0.96 mg/kg/day vs SAMP8 VEH): −0.8381
S100A9 expression (microarray) (S100A9; [1]): down-regulated

From patent US20180284095A1, “BIOMARKERS ASSOCIATED WITH LSD1 INHIBITORS AND USES THEREOF” (Oryzon Genomics, S.A., priority 2015, published 2018)
